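Test compounds were applied to cells in 96-well plates for 48 hours at 5 doses. Here, GI50 denotes the concentration required for 50% inhibition of growth. At the TGI there is no net growth.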

8 molecules from PubChem BioAssay (NCI) can be followed below.

Test systems include ACHN renal; BT-549 breast; HCT-15 colon; HOP-92 NSCLC; MOLT-4 leukemia; NCI-H23 lung; NCI/ADR-RES ovarian; SF-295 CNS; SK-MEL-5 melanoma; SF-539 CNS.
What all share (test): NCI-60 cell line screen, 48 h

As for `COc1ccc2cc(C(=O)/C=C/c3ccco3)ccc2c1`, the GI50 with ACHN renal is 29.4 µM; in the assay on BT-549 breast, 20.4 µM; in the assay with HCT-15 colon, 25.6 µM; in the assay with HOP-92 NSCLC it was 62.6 µM; in the assay with MOLT-4 leukemia it was 41.7 µM; with NCI-H23 lung it was 19.5 µM. The figures for the GI50 with NCI/ADR-RES ovarian, with SF-295 CNS and in the assay with SK-MEL-5 melanoma were 23.8 µM, 38.8 µM and 12.2 µM, respectively. For the same molecule, the TGI with ACHN renal was 79.1 µM; in the assay with BT-549 breast, 43.8 µM; in the assay with HCT-15 colon it was greater than 100 µM; in the assay on HOP-92 NSCLC it was greater than 100 µM; in the assay with MOLT-4 leukemia, greater than 100 µM; with NCI-H23 lung, 42.7 µM. For the same molecule, the TGI in the assay with NCI/ADR-RES ovarian is 63.8 µM; with SF-295 CNS, greater than 100 µM; in the assay on SK-MEL-5 melanoma, 31.1 µM.

As to `Cc1cccc2c1NC(=O)C2(c1ccc(O)cc1)c1ccc(O)cc1`, the GI50 was 12.4 µM with ACHN renal; less than 0.01 µM in the assay with BT-549 breast; 0.53 µM with HCT-15 colon; 1.42 µM in the assay with HOP-92 NSCLC; 11.8 µM with MOLT-4 leukemia; 0.0459 µM in the assay on NCI-H23 lung. The GI50 in the assay with NCI/ADR-RES ovarian was 0.133 µM; in the assay on SF-295 CNS, 12.6 µM; in the assay on SF-539 CNS, 17.7 µM; with SK-MEL-5 melanoma, 15.9 µM. Besides, the TGI with ACHN renal was greater than 100 µM; with HCT-15 colon it was greater than 100 µM; in the assay with HOP-92 NSCLC it was 27.6 µM; in the assay with MOLT-4 leukemia, 75 µM; with NCI-H23 lung it was 31.8 µM; in the assay on NCI/ADR-RES ovarian, greater than 100 µM. Further, the values for the TGI with SF-295 CNS, with SF-539 CNS and with SK-MEL-5 melanoma were 38.1 µM, 45.8 µM and 33.2 µM, respectively.

Take `COc1cc(C2C(C(=O)OCc3ccccc3)=C(C)NC(C)=C2C(=O)OCc2ccccc2)cc(OC)c1OC`: the GI50 was 2.79 µM in the assay on ACHN renal; 3.3 µM in the assay with BT-549 breast; 3.08 µM in the assay with HOP-92 NSCLC; 1.31 µM in the assay with MOLT-4 leukemia; 3.06 µM with NCI/ADR-RES ovarian; 2.86 µM in the assay with SF-295 CNS. Also, in the assay with SF-539 CNS, the GI50 was 3.99 µM. Also, the TGI was greater than 100 µM with ACHN renal; greater than 100 µM in the assay on BT-549 breast; 37.9 µM with HOP-92 NSCLC; greater than 100 µM in the assay on MOLT-4 leukemia; greater than 100 µM with NCI/ADR-RES ovarian; greater than 100 µM with SF-295 CNS. The TGI in the assay on SF-539 CNS is greater than 100 µM.

For `COc1ccc(N2C(=O)C3c4[nH]c5cc(Cl)ccc5c4C4CCC(C(C)(C)C)CC4C3C2=O)cc1` (configuration not stated), the TGI in the assay with ACHN renal, with BT-549 breast, in the assay with HCT-15 colon, in the assay with MOLT-4 leukemia, in the assay on NCI-H23 lung and with NCI/ADR-RES ovarian was greater than 100 µM throughout. Further, the TGI in the assay on SF-295 CNS, in the assay with SF-539 CNS and in the assay with SK-MEL-5 melanoma was greater than 100 µM each time.

For the molecule `Cc1ccc(C(CC(=O)c2ccccc2)C(C(=O)c2ccccc2)C(c2ccc(C)cc2)C2C(=O)NC(=S)NC2=O)cc1` (configuration not stated), the GI50 in the assay on ACHN renal is 11.3 µM; with BT-549 breast, 31.7 µM; in the assay with HCT-15 colon, 17 µM; with HOP-92 NSCLC it was 11 µM; in the assay with MOLT-4 leukemia it was 8.85 µM; in the assay with NCI-H23 lung, 15.1 µM. Besides, the GI50 in the assay with NCI/ADR-RES ovarian is 8.05 µM; in the assay on SF-295 CNS, 12.2 µM; in the assay with SF-539 CNS it was 28.9 µM; in the assay with SK-MEL-5 melanoma it was 10.6 µM. Moreover, the TGI in the assay with ACHN renal, in the assay with BT-549 breast, in the assay on HCT-15 colon, in the assay on HOP-92 NSCLC, with MOLT-4 leukemia and with NCI-H23 lung was greater than 50 µM each time. Moreover, the TGI in the assay with NCI/ADR-RES ovarian, with SF-295 CNS, in the assay on SF-539 CNS and in the assay with SK-MEL-5 melanoma was greater than 50 µM in each case.

For the molecule `CCCN(CCC)c1ccc(/C=N/NC(=O)c2cccnc2)cc1`, the GI50 with ACHN renal was 39.5 µM; with BT-549 breast, 30.7 µM; in the assay on HCT-15 colon it was 19.8 µM; in the assay on HOP-92 NSCLC it was 20.3 µM; in the assay on MOLT-4 leukemia it was 31 µM; in the assay on NCI-H23 lung it was 36.1 µM. Besides, the GI50 in the assay with NCI/ADR-RES ovarian is 18 µM; in the assay with SF-295 CNS, 16.5 µM; with SF-539 CNS, 18.8 µM; in the assay on SK-MEL-5 melanoma, 18.2 µM. For the same molecule, the TGI in the assay on ACHN renal was greater than 100 µM; in the assay with BT-549 breast, greater than 100 µM; with HCT-15 colon, greater than 100 µM; in the assay with HOP-92 NSCLC, 64.8 µM; with MOLT-4 leukemia, greater than 100 µM; with NCI-H23 lung it was greater than 100 µM. Further, the TGI was greater than 100 µM in the assay on NCI/ADR-RES ovarian, 55.6 µM with SF-295 CNS, 61.4 µM with SF-539 CNS and 42 µM with SK-MEL-5 melanoma.

For `C=CCCC(O)c1ccc(CCCCCCCCCCC)o1` (configuration not stated), the GI50 in the assay on ACHN renal was 15.6 µM; in the assay on BT-549 breast, 16.7 µM; in the assay on HCT-15 colon, 17 µM; with HOP-92 NSCLC it was 18.2 µM; in the assay on MOLT-4 leukemia it was 29.9 µM; in the assay on NCI-H23 lung, 19.3 µM. The GI50 was 18.9 µM in the assay with NCI/ADR-RES ovarian, 14.2 µM in the assay with SF-295 CNS, 18.9 µM with SF-539 CNS and 17 µM in the assay with SK-MEL-5 melanoma. For the same molecule, the TGI in the assay on ACHN renal is 28.9 µM; in the assay with BT-549 breast, 30.7 µM; with HCT-15 colon it was 31.5 µM; with HOP-92 NSCLC it was 35.9 µM; with MOLT-4 leukemia it was greater than 100 µM; with NCI-H23 lung, 40.6 µM. The TGI was determined as 35.5 µM with NCI/ADR-RES ovarian, 30.4 µM with SF-295 CNS, 34.3 µM in the assay on SF-539 CNS and 31.5 µM in the assay on SK-MEL-5 melanoma.

Regarding `CCCC(=O)Nc1ncnc2c1ncn2C1OC2COP(=O)(O)OC2C1OC(=O)CCC` (configuration not stated), the GI50 in the assay on ACHN renal, in the assay on HCT-15 colon, in the assay with MOLT-4 leukemia, in the assay on NCI-H23 lung, in the assay with NCI/ADR-RES ovarian and in the assay on SF-295 CNS was greater than 1000 µM each time. For the same molecule, the GI50 with SK-MEL-5 melanoma is greater than 1000 µM. Moreover, the TGI with ACHN renal, in the assay with BT-549 breast, with HCT-15 colon, in the assay with HOP-92 NSCLC, in the assay on MOLT-4 leukemia and in the assay on NCI-H23 lung was greater than 1000 µM in each case. The TGI in the assay on NCI/ADR-RES ovarian, with SF-295 CNS, in the assay on SF-539 CNS and with SK-MEL-5 melanoma was greater than 1000 µM throughout.
